The supplement of paper PMC11451515

System: NOMO1
Assay: cell viability relative to DMSO control; higher = less cytotoxic
Settings: 48 h
Summary of the method: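 Library compounds in DMSO were pin-dosed into 1536-well plates (5 μl) holding NOMO1 or SEM (500 cells/well) or P12-Ichikawa (1000 cells/well) leukemia cells, across an 11-point threefold series of 47 μM to 0.79 nM. Each cell line had been adapted for at least four passages in each medium. CellTiter-Glo One luminescence was read after 48 h at 37°C. Viability is the per-plate percentage relative to DMSO wells, with cell-free wells as background.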

[1] = HPLM + 10% dialyzed FBS, 0.000781 µM
[2] = HPLM + 10% dialyzed FBS, 0.00234 µM
[3] = HPLM + 10% dialyzed FBS, 0.00702 µM
[4] = HPLM + 10% dialyzed FBS, 0.0211 µM
[5] = HPLM + 10% dialyzed FBS, 0.0632 µM
[6] = HPLM + 10% dialyzed FBS, 0.19 µM
[7] = HPLM + 10% dialyzed FBS, 0.569 µM
[8] = HPLM + 10% dialyzed FBS, 1.71 µM
[9] = HPLM + 10% dialyzed FBS, 5.12 µM
[10] = HPLM + 10% dialyzed FBS, 15.4 µM
[11] = HPLM + 10% dialyzed FBS, 46.1 µM
[12] = RPMI 5 mM glucose + 10% FBS, 0.000781 µM
[13] = RPMI 5 mM glucose + 10% FBS, 0.00234 µM
[14] = RPMI 5 mM glucose + 10% FBS, 0.00702 µM
[15] = RPMI 5 mM glucose + 10% FBS, 0.0211 µM
[16] = RPMI 5 mM glucose + 10% FBS, 0.0632 µM
[17] = RPMI 5 mM glucose + 10% FBS, 0.19 µM
[18] = RPMI 5 mM glucose + 10% FBS, 0.569 µM
[19] = RPMI 5 mM glucose + 10% FBS, 1.71 µM
[20] = RPMI 5 mM glucose + 10% FBS, 5.12 µM
[21] = RPMI 5 mM glucose + 10% FBS, 15.4 µM
[22] = RPMI 5 mM glucose + 10% FBS, 46.1 µM
[23] = RPMI 5 mM glucose + 10% dialyzed FBS, 0.000781 µM
[24] = RPMI 5 mM glucose + 10% dialyzed FBS, 0.00234 µM
[25] = RPMI 5 mM glucose + 10% dialyzed FBS, 0.00702 µM
[26] = RPMI 5 mM glucose + 10% dialyzed FBS, 0.0211 µM
[27] = RPMI 5 mM glucose + 10% dialyzed FBS, 0.0632 µM
[28] = RPMI 5 mM glucose + 10% dialyzed FBS, 0.19 µM
[29] = RPMI 5 mM glucose + 10% dialyzed FBS, 0.569 µM
[30] = RPMI 5 mM glucose + 10% dialyzed FBS, 1.71 µM
[31] = RPMI 5 mM glucose + 10% dialyzed FBS, 5.12 µM
[32] = RPMI 5 mM glucose + 10% dialyzed FBS, 15.4 µM
[33] = RPMI 5 mM glucose + 10% dialyzed FBS, 46.1 µM

Compound | cell viability [1] | cell viability [2] | cell viability [3] | cell viability [4] | cell viability [5] | cell viability [6] | cell viability [7] | cell viability [8] | cell viability [9] | cell viability [10] | cell viability [11] | cell viability [12] | cell viability [13] | cell viability [14] | cell viability [15] | cell viability [16] | cell viability [17] | cell viability [18] | cell viability [19] | cell viability [20] | cell viability [21] | cell viability [22] | cell viability [23] | cell viability [24] | cell viability [25] | cell viability [26] | cell viability [27] | cell viability [28] | cell viability [29] | cell viability [30] | cell viability [31] | cell viability [32] | cell viability [33]
CN(C)c1ccc2cc(C(=O)N[C@@H](CCCNC(=N)CCl)C(=O)NCc3ccccc3)ccc2c1 | 108% | 128% | 108% | 121% | 125% | 107% | 112% | 112% | 106% | 87.2% | 14% | 92% | 119% | 104% | 96.3% | 98.5% | 102% | 97% | 98.6% | 100% | 85.4% | 8.34% | 114% | 109% | 103% | 110% | 111% | 119% | 115% | 105% | 105% | 98.7% | 12.5%
CN[C@@H]1C[C@H]2O[C@@](C)([C@@H]1OC)n1c3ccccc3c3c4c(c5c6ccccc6n2c5c31)C(=O)N[C@H]4O | 81.2% | 101% | 93.1% | 78.2% | 96.8% | 56.4% | 48.8% | 35.4% | 22.7% | 18% | 3.31% | 76.2% | 87.6% | 81.4% | 82.7% | 84.6% | 69.4% | 64.7% | 19.6% | 14.8% | 12.7% | 3.97% | 79.9% | 84.5% | 85.9% | 90.5% | 95.9% | 85.5% | 65.5% | 31.6% | 16.9% | 14.7% | 3.79%
CC(C)(C)c1cc(C(=O)O)c(NC(=O)Nc2ccc3[nH]ncc3c2)s1 | 98.5% | 106% | 101% | 90.7% | 91.1% | 86.6% | 90.5% | 93.9% | 98.8% | 77.2% | 74.3% | 85.9% | 93.1% | 86.6% | 90.2% | 89.9% | 92.3% | 91.5% | 83.9% | 91.2% | 77.3% | 78% | 87.9% | 92.5% | 84% | 89.5% | 90.9% | 83.1% | 83% | 94.9% | 102% | 82.8% | 81.6%
O=C1NC(O)CCN1[C@@H]1O[C@H](CO)[C@@H](O)[C@H]1O (stereo partly drawn) | 145% | 124% | 123% | 142% | 113% | 131% | 143% | 116% | 111% | 92.2% | 21% | 121% | 110% | 104% | 112% | 110% | 110% | 105% | 105% | 109% | 108% | 32.3% | 112% | 108% | 113% | 108% | 110% | 110% | 125% | 126% | 111% | 106% | 34.8%
OCCCNc1cc(-c2ccnc(Nc3cccc(Cl)c3)n2)ccn1 | 106% | 107% | 119% | 119% | 114% | 80.4% | 14.1% | 7.46% | 8.09% | 6.31% | 4.31% | 92.2% | 98.4% | 117% | 111% | 107% | 54.5% | 18.8% | 9.75% | 8.02% | 7.79% | 4.61% | 97.5% | 95.8% | 100% | 106% | 100% | 63.3% | 15.8% | 7.75% | 7.44% | 7.1% | 5.05%
CCCCCCCCc1ccc(CCC(N)(CO)CO)cc1 | 124% | 124% | 123% | 122% | 112% | 102% | 79.1% | 91% | 60.6% | 48.9% | 2.93% | 99.2% | 104% | 102% | 100% | 105% | 102% | 104% | 93.4% | 90.3% | 64.2% | 2.61% | 113% | 105% | 103% | 113% | 105% | 95.6% | 98.2% | 81% | 70.5% | 65.2% | 2.38%
CC(=O)[C@H]1CC[C@H]2[C@@H]3CCC4=CC(=O)CC[C@]4(C)[C@H]3CC[C@]12C | 110% | 122% | 140% | 136% | 127% | 120% | 123% | 133% | 139% | 115% | 147% | 116% | 109% | 122% | 120% | 116% | 111% | 114% | 123% | 128% | 120% | 133% | 114% | 121% | 134% | 134% | 127% | 135% | 136% | 141% | 158% | 140% | 150%
CC[C@@]1(O)C[C@H](O[C@H]2C[C@H](N(C)C)[C@H](O[C@H]3C[C@H](O)[C@H](O[C@H]4CCC(=O)[C@H](C)O4)[C@H](C)O3)[C@H](C)O2)c2c(cc3c(c2O)C(=O)c2c(O)cccc2C3=O)[C@H]1C(=O)OC | 109% | 106% | 106% | 106% | 122% | 101% | 109% | 82% | 67% | 78.5% | 71.9% | 95.7% | 102% | 95.6% | 97.6% | 106% | 93.8% | 95.6% | 64.2% | 76.6% | 75.8% | 85% | 91.5% | 84.7% | 94.4% | 98.1% | 102% | 90.4% | 93.9% | 67.7% | 71.6% | 75.3% | 72.1%
CC(NCc1ccc2c(c1)[nH]/c(=N\C(=O)c1ccc(-c3cn[nH]c3)s1)n2CC(C)(C)O)C(C)(C)C (stereo not drawn) | 110% | 109% | 113% | 112% | 106% | 103% | 74.4% | 54.1% | 9.83% | 5.43% | 4.17% | 110% | 104% | 109% | 98.7% | 102% | 103% | 98.7% | 87.2% | 10.8% | 5.4% | 3.08% | 116% | 100% | 110% | 99.5% | 101% | 101% | 92.9% | 69.7% | 8.51% | 4.24% | 2.97%
O=C1N\2CCC3=C([NH]C4=C3C=CC=C4)C2=N/C5=CC=CC=C15 | 111% | 122% | 130% | 134% | 155% | 147% | 130% | 129% | 155% | 130% | 112% | 144% | 124% | 125% | 128% | 132% | 124% | 169% | 136% | 139% | 140% | 131% | 115% | 121% | 129% | 130% | 130% | 124% | 122% | 140% | 135% | 141% | 124%
CCOC1=CC(=CC=C1C/2=N/[C@@](C)(C3=CC=C(Cl)C=C3)[C@](C)(N2C(=O)N4CCN(CC4)CC(=O)N5CCOCC5)C6=CC=C(Cl)C=C6)C(C)(C)C |  |  |  |  |  |  |  |  |  |  |  | 93.3% | 90.6% | 96.3% | 105% | 112% | 121% | 98.6% | 99.3% | 102% | 91.6% | 97% | 92.6% | 113% | 102% | 102% | 126% | 120% | 124% | 100% | 81.8% | 90.1% | 86.2%
NCC(=O)Nc1ccc(-n2nc(C(F)(F)F)cc2-c2ccc3c(ccc4ccccc43)c2)cc1 | 129% | 123% | 123% | 137% | 134% | 124% | 138% | 147% | 131% | 108% | 78.1% |  |  |  |  |  |  |  |  |  |  |  |  |  |  |  |  |  |  |  |  |  | 
CC(=O)O[C@@]12CO[C@@H]1C[C@H](O)[C@]3(C)[C@@H]2[C@H](OC(=O)C4=CC=CC=C4)[C@]5(O)C[C@H](OC(=O)C(O)[C@@H](NC(=O)OC(C)(C)C)C6=CC=CC=C6)C(=C(/[C@@H](O)C3=O)C5(C)C)/C (stereo partly drawn) | 32.4% | 37.3% | 34.7% | 39.4% | 42% | 43% | 31.7% | 27.4% | 27.7% | 7.8% | 5.55% | 23.9% | 27% | 25.5% | 28.9% | 28.2% | 27.1% | 24.7% | 24.8% | 20% | 12.6% | 8.59% | 25.2% | 30.6% | 27.8% | 31.5% | 28.9% | 29.7% | 27.3% | 26.2% | 18.8% | 11% | 9.95%
C#Cc1cccc(Nc2ncnc3cc(OC)c(OCCCCCCC(=O)NO)cc23)c1 | 125% | 119% | 136% | 129% | 111% | 98.2% | 41.5% | 18.4% | 7.85% | 8.02% | 3.32% |  |  |  |  |  |  |  |  |  |  |  |  |  |  |  |  |  |  |  |  |  | 
NC(=O)Nc1cc(-c2ccc(CN3CCOCC3)cc2)sc1C(N)=O | 122% | 112% | 121% | 132% | 113% | 68.3% | 71.7% | 91.5% | 84.6% | 74.9% | 48.4% | 100% | 113% | 126% | 101% | 97.6% | 50% | 50.8% | 45.9% | 52.1% | 58.5% | 49.6% | 107% | 99.3% | 108% | 108% | 101% | 55.5% | 46.2% | 47.8% | 56% | 58.3% | 37.2%
CC(C)C[C@H](NC(=O)[C@H](Cc1ccccc1)NC(=O)c1cnccn1)B(O)O | 99.7% | 106% | 108% | 119% | 21.6% | 3.62% | 4.25% | 2.64% | 2.22% | 1.08% | 0.274% | 83.7% | 91.4% | 99% | 96.6% | 21.6% | 6.12% | 2.91% | 1.66% | 1.61% | 1.02% | -0.312% | 94.5% | 101% | 98.4% | 116% | 17% | 5% | 3.79% | 3% | 1.75% | 1.72% | -0.0281%
